Source: publication PMC9926489, “Chemical Optimization of Selective Pseudomonas aeruginosa LasB Elastase Inhibitors and Their Impact on LasB-Mediated Activation of IL-1β in Cellular and Animal Infection Models” (ACS Infectious Diseases, 2023)

How the values were obtained:
[1] = Cytotoxicity screening (MTS), SAEC; type: cell-based; details: human, small airway epithelial cells (SAEC)
Method: Bronchial smooth muscle cells (BSMC, Lonza CC-2576), small airway epithelial cells (SAEC, Lonza CC-2547), or HepG2 cells (ATCC HB-8065) were seeded in 96-well plates at a density of 25,000 per well. Culture of these cells throughout the protocol utilized incubation at 37 °C, 5% CO2 in a humidified atmosphere, with BSMC and SAEC cells cultured in cell-specific media (Lonza) and HepG2 cells cultured in RPMI 1640 medium containing Glutamax (Gibco) and 10% fetal bovine serum. Plates containing BSMC cells were collagen coated to assist with cell adhesion. Following an overnight settling period, media was replaced with fresh media, with, or without, compound. Compound concentrations tested were 1, 3, 10, 30, and 100 μM, in duplicate. The cells were incubated with compound for 24 h. Control (1% DMSO) and positive standards terfenadine- and salmeterol-treated groups were included for both cell lines. […] The reaction was stopped with 12.5 μL of 10% SDS, plates briefly shaken, and absorbance (490 nm) read using a Spectramax M5e plate reader (Molecular Devices). Percentages of viable cells were calculated as: (test sample Abs 490 nM-mean blank Abs 490 nm)/(mean control Abs 490 nM-mean blank Abs 490 nm) × 100.

[2] = biological target: T1, LasB S460T (Pseudomonas aeruginosa, UniProt P14756, S460T); test: LasB variant inhibition, culture supernatant: S460T; type: biochemical, P. aeruginosa
T1 construct: Most changes were identified in the mature peptide, however some occurred in the propeptide domain; endogenous in cells; host or cells: P. aeruginosa clinical CF isolate, culture supernatant
Source text: Compounds 12 and 16 were discovered as a result of optimizing potency against the LasB protein expressed from the wild-type (WT) reference strain P. aeruginosa PAO1. To understand the relative prevalence of the WT LasB protein versus other variants in clinical respiratory P. aeruginosa strains, the full-length lasB gene was amplified by PCR from 255 clinical isolates (obtained from CF sputum samples). […] Most changes were identified in the mature peptide, however some occurred in the propeptide domain, which could affect LasB processing (marked in italics in Table 4).
LasB inhibition assays were performed using purified LasB enzyme (1 ng/well) for compound screening or using culture supernatants (prepared as described in the ECR assay) for testing LasB variants. Hydrolysis of the fluorogenic peptide substrate 2-aminobenzoyl-Ala-Gly-Leu-Ala-4-nitrobenzylamide (Abz-AGLA-Nba; Peptide International) in 50 mM Tris-HCl (pH 7.4), supplemented with 2.5 mM CaCl2 was followed using an Envision microplate reader (PerkinElmer) at 315 nm excitation and 430 nm emission. […] IC50 values were determined from Hill plots using Dotmatics Studies ELN software. For the mechanism of inhibition studies, hydrolysis rates were measured in the presence of variable concentrations of substrate and inhibitor, and the inhibition constant (Ki) was determined using Dixon plot analysis.[31]

[3] = Mouse pharmacokinetics, plasma; type: in vivo; details: single 10 mg/kg IV dose; for half-life / C0 / AUC(0-t) / clearance: female, ICR (CD-1), plasma; for half-life: iv, read-out: plasma t1/2 (converted); for half-life / plasma t1/2: 10 mg/kg; for AUC(0-t): read-out: plasma AUClast; for clearance: read-out: plasma CL
Method: (§1) The PK parameters of compounds 12 and 16 were investigated in both plasma and lung epithelial lining fluid (ELF) after intravenous (IV) administration of compounds at 10 mg/kg in mice (Figure 4 and Table 5). […] Accordingly, these levels of lung penetration (9.5 and 5.2%, respectively) warranted the evaluation of the compounds in an animal model of lung infection using IV dosing.
(§2) Unrestrained, nonanesthetized mice (Female ICR (CD-1); Age 5–6 weeks; Size 22 ± 2 g; specific pathogen-free (SPF)) were injected IV with test article formulations via the tail vein. Animals were sacrificed by cardiac puncture under CO2 euthanasia at 0.08, 0.25, 1, 2, 4, 8, and 24 h post dosing. Blood was drawn into tubes coated with EDTA-K3, mixed gently and plasma was then harvested and kept frozen at −70 °C until further processing. To collect […] (BALF), 0.5 mL of PBS was administered once through a tracheal cannula after which about 0.2 to 0.3 mL of BALF was obtained. The BALF was kept on ice and centrifuged within 1 h of collection and the supernatant was harvested and kept frozen at −70 °C. Plasma and BALF samples were analyzed by LC-MS/MS (AB SCIEX API 3000 mass spectrometer). The apparent ELF volume of each BALF sample was estimated using urea as an endogenous marker of the ELF dilution. The urea concentrations in BALF and plasma samples were determined with the QuantiChrom Urea Assay Kit (DIUR-100) (BioAssay Systems) following the manufacturer’s protocol. For each BALF sample, the drug concentration in ELF was calculated as follows: drug concentrationELF = drug concentrationBALF × (urea concentrationplasma/urea concentrationBALF). The PK parameters of each compound after IV dosing (t1/2, C0, AUClast, and CL) were obtained from the noncompartmental analysis (NCA) of the plasma data using WinNonlin.

[4] = Mouse pharmacokinetics, lung epithelial lining fluid (ELF); type: in vivo; details: for ELF concentration (C0) relative to LasB Ki: 10 mg/kg IV; for Kp / C0 / AUC(0-t) / clearance / half-life: female, ICR (CD-1); for Kp: lung epithelial lining fluid (ELF) and plasma, iv, read-out: lung penetration (AUClast ELF/AUClast plasma); for Kp / lung penetration (AUClast plasma/AUClast ELF): 10 mg/kg; for Kp / C0 / AUC(0-t) / clearance / half-life / lung penetration (AUClast plasma/AUClast ELF): single 10 mg/kg IV dose; for C0 / AUC(0-t) / clearance / half-life: lung epithelial lining fluid (ELF), epithelial lining fluid; for AUC(0-t): read-out: ELF AUClast; for clearance: read-out: ELF CL; for half-life: read-out: ELF t1/2 (converted)
Method: as §1, §2

T1 sequence (P14756 198-498 S460T): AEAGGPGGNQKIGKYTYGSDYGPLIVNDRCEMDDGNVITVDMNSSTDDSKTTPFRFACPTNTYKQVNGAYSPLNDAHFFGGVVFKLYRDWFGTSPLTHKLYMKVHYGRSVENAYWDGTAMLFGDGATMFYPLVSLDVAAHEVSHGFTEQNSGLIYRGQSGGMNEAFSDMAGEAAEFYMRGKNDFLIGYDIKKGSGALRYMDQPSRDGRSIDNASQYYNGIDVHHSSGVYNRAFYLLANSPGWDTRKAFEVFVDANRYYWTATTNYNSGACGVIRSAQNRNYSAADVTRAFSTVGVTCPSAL

COc1cc2sc(CNC(=O)C3(CC(=O)O)Cc4ccccc4C3)nc2cc1OCCC[N+](C)(C)C [Compound 12]
IC50 at 24 h [1]: > 100 µM | IC50 [2]: 0.211 µM | half-life [3]: ~6 h | C0 [3]: 92200 ng/mL | AUC(0-t) [3]: 610 µg·h/mL | clearance [3]: 0.3 mL/min/kg | plasma t1/2 [3]: 6.2 h | ELF concentration (C0) relative to LasB Ki [4]: over 100 fold | Kp [4]: 0.095 | C0 [4]: 2700 ng/mL | AUC(0-t) [4]: 57.7 µg·h/mL | clearance [4]: 1.5 mL/min/kg | half-life [4]: 25.8 h | lung penetration (AUClast plasma/AUClast ELF) [4]: 9.54%

COc1cc2sc(CNC(=O)C3(CC(=O)O)Cc4cc(F)c(F)cc4C3)nc2cc1OCCC[N+](C)(CCO)CCO [Compound 16]
IC50 at 24 h [1]: > 100 µM | IC50 [2]: 0.201 µM | half-life [3]: ~6 h | C0 [3]: 176000 ng/mL | AUC(0-t) [3]: 517 µg·h/mL | clearance [3]: 0.3 mL/min/kg | plasma t1/2 [3]: 6.5 h | ELF concentration (C0) relative to LasB Ki [4]: over 100 fold | Kp [4]: 0.052 | C0 [4]: 2700 ng/mL | AUC(0-t) [4]: 27 µg·h/mL | clearance [4]: 5.2 mL/min/kg | half-life [4]: 9.5 h | lung penetration (AUClast plasma/AUClast ELF) [4]: 5.22%
